Test system: Ehrlich adenocarcinoma
Assay: Ehrlich adenocarcinoma (solid) in mice (Table VI)
Format: in vivo, mouse
Settings: for Body weight change, not [net]: controls +2.27; for Body weight change, gross: controls +4.85; for % Inhibition (tumor growth) / Average tumor weight: eighth day; for Average tumor weight: controls 2.583
Source text: At least 20 animals per lot were used.
The checking of the activity on solid tumors has been carried out with Ehrlich adenocarcinoma and sarcoma 180 in the mouse and with Walker carcinosarcoma and the Oberling-Guerin-Guerin myeloma in the rat.
Mice grafted with a fragment of tumor subcutaneously for 6 days starting from the day after the transplantation have been treated with a solution of the antibiotic. At the eighth day of experiment all the animals were killed and the tumor was removed and weighed.

## COc1cccc2c1C(=O)c1c(O)c3c(c(O)c1C2=O)C[C@@](O)(C(C)=O)C[C@@H]3O[C@H]1C[C@H](N)[C@H](O)[C@H](C)O1 [F.I. 1762]
3 mg/kg/day
  Body weight change, not [net]: +1.59 grams
  Body weight change, gross: +3.84 grams
  % Inhibition (tumor growth): 12%
  Average tumor weight: 2.253 grams
6 mg/kg/day
  Body weight change, not [net]: +1.07 grams
  Body weight change, gross: +2.59 grams
  % Inhibition (tumor growth): 41.1%
  Average tumor weight: 1.522 grams
